According to ChEMBL document CHEMBL4765253, “Discovery, synthesis, and optimization of an N-alkoxy indolylacetamide against HIV-1 carrying NNRTI-resistant mutations from the Isatis indigotica root” (Eur J Med Chem, 2020):

How the values were obtained:
[1] = tested on: Human immunodeficiency virus 1; experiment: Antiviral activity against VSVG/wild-type HIV-1 infected in human HEK 293T cells assessed as inhibition of virus replication preincubated with cells for 15 mins prior to viral infection and measured at 48 hrs post-infection by luciferase reporter gene assay; type: functional, organism-based, HEK293T; details: Human immunodeficiency virus 1, HEK-293T
HEK-293T [2] = experiment: Cytotoxicity against human HEK 293T cells assessed as reduction in cell viability measured after 48 hrs by Celltiter-glo assay; type: cell-based
[3] = Inhibition of HIV-1 reverse transcriptase RNA-dependent DNA polymerase activity assessed as reduction in dTTP incorporation using poly(rA)/oligo(dT) as template/primer incubated for 1 hr followed by transferring into streptavidin plate for 1 hr by absorbance based analysis; design: species or system Human immunodeficiency virus 1
[4] = tested on: Human immunodeficiency virus 1; experiment: (§1) Antiviral activity against VSVG/HIV-1 harboring reverse transcriptase K103N mutant infected in human HEK 293T cells assessed as inhibition of virus replication preincubated with cells for 15 mins prior to viral infection and measured at 48 hrs post-infection by luciferase reporter gene assay; type: functional, organism-based, HEK293T
[5] = Inhibition of RNase H activity of HIV-1 reverse transcriptase using DNA/RNA hybrid as substrate incubated for 30 mins by fluorescence based analysis; design: species or system Human immunodeficiency virus 1
[6] = tested on: Human immunodeficiency virus 1; type: functional, organism-based, HEK293T
[7] = tested on: Human immunodeficiency virus 1; type: functional, organism-based, HEK293T; remark: listed apart in the source
[8] = tested on: Human immunodeficiency virus 1; experiment: as §1, with “L100I/K103N double” for “K103N”; type: functional, organism-based; details: hek293t
[9] = tested on: Human immunodeficiency virus 1; experiment: as §1, with “G190A/K103N double” for “K103N”; type: functional, organism-based, HEK293T
[10] = tested on: Human immunodeficiency virus 1; experiment: as §1, with “V108I/K103N double” for “K103N”; type: functional, organism-based, HEK293T
[11] = tested on: Human immunodeficiency virus 1; type: functional, organism-based, HEK293T; remark: listed apart in the source
[12] = Selectivity index, ratio of CC50 for human HEK 293T cells to EC50 for VSVG/wild type HIV1 infected in human HEK 293T cells; type: toxicity, cell-based; details: read-out: Ratio CC50/EC50
HEK-293T [13] = experiment: Cytotoxicity against human HEK 293T cells assessed as cell viability at 30 uM measured after 48 hrs by Celltiter-glo assay; type: cell-based
[14] = tested on: Human immunodeficiency virus 1; experiment: Antiviral activity against VSVG/wild-type HIV-1 infected in human HEK 293T cells assessed as time during which compound exhibits 50% virologic failure at 1 uM treated at post-viral infection and measured at 48 hrs post-infection by luciferase reporter gene assay; type: functional, HEK293T
[15] = Human immunodeficiency virus 1, HEK-293T

SMILES: CCCOn1cc(CC(=O)Nc2ccncc2Cl)c2ccccc21
- EC50 [1]: 60 nM
- CC50 (HEK-293T [2]): 16400 nM
- IC50 [3]: 110 nM
- EC50 [4, 15]: 700 nM
- IC50 [5]: > 100000 nM
- EC50 ([6]; hek293t): 180 nM
- EC50 ([7]; hek293t): 1850 nM
- EC50 [8]: 1180 nM
- EC50 ([9]; hek293t): 1380 nM
- EC50 ([10]; hek293t): 1270 nM

SMILES: CCCCOn1cc(CC(=O)Nc2ccncc2Cl)c2ccccc21
- EC50 [1]: 40 nM
- CC50 (HEK-293T [2]): 22100 nM
- IC50 [3]: 80 nM
- IC50 [5]: > 100000 nM
- EC50 [6, 15]: 40 nM
- EC50 [8]: 430 nM
- EC50 ([11]; hek293t): 1420 nM
- EC50 [9, 15]: 700 nM
- EC50 ([10]; hek293t): 560 nM

SMILES: CCOn1cc(CC(=O)Nc2ccccc2C(=O)OC)c2ccccc21
- EC50 [1]: 5700 nM
- CC50 (HEK-293T [2]): > 30000 nM
- selectivity ratio [12]: > 5.26
- Activity (HEK-293T [13]): 52.76%

SMILES: Cc1cn([C@H]2C[C@H](N=[N+]=[N-])[C@@H](CO)O2)c(=O)[nH]c1=O [ZIDOVUDINE]
- FT50 [14]: 8.5 h

SMILES: COn1cc(CC(=O)Nc2ccccc2Br)c2ccccc21
- EC50 [1]: 3200 nM
- CC50 (HEK-293T [2]): > 30000 nM
- selectivity ratio [12]: > 9.38
- Activity (HEK-293T [13]): 83.48%

SMILES: Cc1nnc(C(=O)NC(C)(C)c2nc(C(=O)NCc3ccc(F)cc3)c(O)c(=O)n2C)o1
- FT50 [14]: 12.2 h

SMILES: COn1cc(CC(=O)Nc2ccccc2I)c2ccccc21
- EC50 [1]: 4400 nM
- CC50 (HEK-293T [2]): > 30000 nM
- selectivity ratio [12]: > 6.82
- Activity (HEK-293T [13]): 67.04%

SMILES: Cc1ccnc2c1NC(=O)c1cccnc1N2C1CC1 [NEVIRAPINE]
- CC50 (HEK-293T [2]): > 30000 nM
- EC50 ([4]; hek293t): 1400 nM
- Activity (HEK-293T [13]): 93.26%
- EC50 [7, 15]: 80000 nM
- EC50 [8]: 760 nM
- EC50 [11, 15]: > 100000 nM
- EC50 ([9]; hek293t): 14600 nM
- EC50 ([10]; hek293t): 2870 nM

SMILES: COC(=O)c1ccccc1NC(=O)Cc1cn(OC)c2ccccc12
- IC50 [5]: > 30000 nM

SMILES: O=C1Nc2ccc(Cl)cc2[C@@](C#CC2CC2)(C(F)(F)F)O1 [EFAVIRENZ]
- CC50 (HEK-293T [2]): 23700 nM
- EC50 [4, 15]: 30 nM
- FT50 [14]: 9.4 h
- EC50 [6, 15]: 2 nM
- EC50 [7, 15]: 50 nM
- EC50 [8]: 1080 nM
- EC50 ([11]; hek293t): 120 nM
- EC50 ([9]; hek293t): 180 nM
- EC50 [10, 15]: 60 nM

SMILES: CCCOn1cc(CC(=O)Nc2ccccc2Cl)c2ccccc21
- EC50 [1]: 290 nM
- CC50 (HEK-293T [2]): 29500 nM
- IC50 [3]: 270 nM
- EC50 [4, 15]: > 10000 nM
- IC50 [5]: > 100000 nM
- EC50 ([6]; hek293t): 2130 nM
- EC50 [7, 15]: > 10000 nM
- EC50 [8]: 8950 nM
- EC50 [11, 15]: > 10000 nM
- EC50 [9, 15]: > 10000 nM
- EC50 [10, 15]: > 10000 nM

SMILES: CCCCCCOn1cc(CC(=O)Nc2ccccc2Cl)c2ccccc21
- EC50 [1]: 1020 nM
- CC50 (HEK-293T [2]): > 30000 nM
- selectivity ratio [12]: > 29.4
- Activity (HEK-293T [13]): 56.95%

SMILES: O=C(Cc1cn(OCCc2ccccc2)c2ccccc12)Nc1ccccc1Cl
- EC50 [1]: 5500 nM
- CC50 (HEK-293T [2]): > 30000 nM
- selectivity ratio [12]: > 5.45
- Activity (HEK-293T [13]): 49.31%
